According to PubChem BioAssay AID2305 (GlaxoSmithKline (GSK), 2010):

system: P. falciparum 3D7 growth, pLDH absorbance; assay: blood-stage malaria parasite growth potency – strain 3D7, dose response (AID 2305)

In order of falling IC50:
1. COc1cccc(-c2cnc(-c3ccncc3)nc2C2CCN(Cc3ccc(NC(C)=O)cc3)CC2)c1  1500 nM
2. CCC(C)NC(=O)Cn1c2ncccc2c(=O)n1-c1ccc(C)cc1 (stereo unspecified)  1260 nM
3. Clc1ccc(CNc2ccnc(NCc3cccnc3N3CCCC3)n2)c(Cl)c1  1170 nM
4. COc1ccc2ncc(F)c(CCN3CC[C@@H](CNCc4cc5c(cn4)OCS5)C3)c2n1  1160 nM
5. O=C(Nc1ccc(Oc2ccc(OC(F)(F)F)cc2)cc1)c1ccco1  1130 nM
6. CCNC(=O)c1ccc(-n2nc(C)cc2-c2ccccc2)cc1  1120 nM
7. CC[C@H](C)CNC(=O)c1cncc(-c2ccc(CNCCOc3ccccc3)cc2)c1  1110 nM
8. CC1CCC(NC(=O)c2nn(-c3ccc(Cl)cc3)c(=O)c3ccccc23)CC1 (stereo unspecified)  1080 nM
9. CCOc1cc(C=NNc2nc(C)cc(-n3nc(C)cc3C)n2)ccc1O  1080 nM
10. Cc1ccccc1C1CCN(C2CCC(NC(=O)c3ccc(-c4ccccc4F)o3)CC2)CC1 (stereo unspecified)  1050 nM
11. Cc1cc(Nc2ccnc(-c3ccc(Cl)cc3)n2)ccn1  1040 nM
12. O=C(NCCCCCN1CCC(c2c[nH]c3ccccc23)CC1)c1ccc(-c2cccnc2)cc1  1030 nM
13. Cc1cccc2[nH]c(-c3ccc(-c4cccc(CNCCCNS(C)(=O)=O)c4)s3)nc12  1020 nM
14. CCCN(CCCCCCN(CCC)CCc1ccc(O)c(O)c1)CCc1ccc(O)cc1  1010 nM
15. Cc1cc2nc(-c3ccc(/C=C/C(=O)NC4CCCCC4)cc3)[nH]c2cc1C  1010 nM
16. COc1ccc2ncc(Cl)c(CCN3C[C@H](CNCc4ccc5c(n4)NC(=O)CS5)[C@H](O)C3)c2n1  1000 nM
17. Cc1ccc(NC(=O)c2cn(-c3ccccc3)nc2-c2ccc(F)cc2)cc1[N+](=O)[O-]  1000 nM
18. O=C(/C=C/c1ccc(Cl)c(Cl)c1)NC1CCC(CN2CCC(c3cc4ccccc4[nH]3)CC2)CC1 (stereo unspecified)  990 nM
19. C[C@@H](C(N)=O)N1CCCCC1c1ccc(OCc2cccc(F)c2)cc1 (stereo partly specified)  990 nM
20. COc1cc2c(c(Cl)c1OC)CCN(Cc1ccccc1)CC2c1ccc(NC(=O)C(F)(F)F)cc1 (stereo unspecified)  920 nM
21. Cc1cccc2[nH]c(-c3cccc(-c4ccc(NC(=O)C5CCCO5)cc4)c3)nc12 (stereo unspecified)  900 nM
22. CN1CCC(COc2ccc(CN3CCC(NC(=O)c4cccc(Cl)c4)CC3)cc2)CC1  890 nM
23. CC1CN(Cc2ccc(-c3ccc(-c4nc5ccc(F)cc5[nH]4)s3)cc2)CC(C)O1 (stereo unspecified)  880 nM
24. Cc1cccc(-c2nc3cc(NC(=O)c4ccc([N+](=O)[O-])o4)ccc3o2)c1  880 nM
25. COc1cccc(O)c1CN1CCC2(CCCN(Cc3ccc(F)cc3)C2)C1 (stereo unspecified)  870 nM
26. CCCc1ccc(S(=O)(=O)NC2CCN(C(=O)Nc3ccc(I)cc3)CC2)cc1  870 nM
27. Cc1ccc(NS(=O)(=O)c2ccc(-c3ccccc3)cc2)c(Cn2cnc(N3CCCNCC3)cc2=O)c1  860 nM
28. CC(C)(C)OC(=O)/C=C(\C(=O)OCc1ccc([N+](=O)[O-])cc1)c1csc(NC(c2ccccc2)(c2ccccc2)c2ccccc2)n1  860 nM
29. O=C(Nc1ccc(Cl)cc1)c1ccc(CN2CCCN(Cc3ccsc3)CC2)cc1  860 nM
30. O=C(Nc1cccc(C(F)(F)F)c1)Nc1ccc2nonc2c1  850 nM
31. Cc1cc(NC(=O)c2cccs2)ccc1OC1CCN(Cc2ccc(C#N)cc2)C1 (stereo unspecified)  850 nM
32. Clc1ccc(CNCCCCCCNCc2ccc(Cl)cc2)cc1  850 nM
33. CC(=O)C1(c2ccccc2)CCN(CCC2(c3ccc(Cl)c(Cl)c3)CN(C(=O)c3cccc(Cl)c3)CCO2)CC1 (stereo unspecified)  850 nM
34. O=C(Nc1ccc(N2CCCN(Cc3cccc(F)c3)CC2)cc1)c1ccc(F)cc1  840 nM
35. O=C(NC1CCC(CN2CCC(c3c[nH]c4ccccc34)CC2)CC1)c1csc(-c2ccc(C(F)(F)F)cc2Cl)n1 (stereo unspecified)  830 nM
36. O=C(NCCCN1CCCCC1)c1cccc(Nc2nccc(Nc3ccc(Oc4ccccc4)cc3)n2)c1  820 nM
37. COc1cc(CC(C)NCC(O)c2cccc(C(F)(F)F)c2)ccc1OCc1ccccc1 (stereo unspecified)  820 nM
38. Cc1cc(Nc2c(C(N)=O)cnc3cc(-c4ccoc4)ccc23)ccc1N1CCN(C)CC1  800 nM
39. O=C(/C=C/c1ccc(Cl)c(Cl)c1)N1CCC(CN2CCC(c3c[nH]c4cc(C(F)(F)F)ccc34)CC2)CC1  800 nM
40. Cc1cc(N(C)CCN(C)C)nc(Nc2ccc(Br)cc2)n1  800 nM
41. O=C(Nc1n[nH]c2nc(-c3ccco3)c(Br)cc12)c1ccc(CN2CCCC2)cc1  790 nM
42. CN(C)CCOc1cc(NC(=O)Nc2ccc(-c3ccncc3)c3ccccc23)ccc1I  780 nM
43. Oc1ccc(-c2cc(-c3ccc(O)cc3)nc(-c3ccccc3)n2)cc1  780 nM
44. Cc1[nH]c2ccc(O)cc2c1C1CCN(CCCCCNC(=O)/C=C/c2ccc(Cl)c(Cl)c2)CC1  770 nM
45. CC(C)(C)CC(C)(C)c1ccc(O)c(C(=O)Nc2ccc([N+](=O)[O-])cc2)c1  770 nM
46. Cc1nc(-c2cccc3c(NC(=O)N4CCc5cc6nccc(N7CCN(C)CC7)c6cc54)cccc23)no1  760 nM
47. NS(=O)(=O)c1ccc(Nc2nccc(-c3c(-c4cccc(NC(=O)c5c(F)cccc5F)c4)nn4ccccc34)n2)cc1  760 nM
48. CN(C)[C@@H]1C(=O)C(C(N)=O)=C(O)[C@@]2(O)C(=O)C3=C(O)c4c(O)ccc(C#Cc5ccccn5)c4C[C@H]3C[C@@H]12  760 nM
49. OC(CNCc1ccccc1OC(F)F)c1cccc(C(F)(F)F)c1 (stereo unspecified)  760 nM
50. Cc1ccc2nc(C)cc(NN=Cc3ccccc3Cl)c2c1  750 nM
51. CCN(CC)CCCNc1c2ccccc2nc2ccccc12  750 nM
52. COCC(C)n1c(C)cc(C(=O)CSc2nnc(Nc3ccccc3)s2)c1C (stereo unspecified)  740 nM
53. CC(C)(C)c1ccc2nc(-c3ccc(C(=O)NCc4cccc(C(F)(F)F)c4)cc3)[nH]c2c1  730 nM
54. O=S(=O)(c1ccccc1)C1CC1  720 nM
55. O=C(CCN1CCCCC1)Nc1ccc(Nc2nccc(NCC(O)c3ccccc3)n2)cc1 (stereo unspecified)  720 nM
56. C=C(C)C1CC=C(CN2CCC(N3CCc4cc(NC(=O)c5cc(C)on5)ccc43)C2)CC1 (stereo unspecified)  710 nM
57. CCOC(=O)C1=C(C)NC2=C(C(=O)C(C(=O)OC)C(C)C2)C1c1cc(Br)c(OCC)c(OC)c1 (stereo unspecified)  700 nM
58. O=C(Nc1ccc(Cn2ncc(N3CCCNCC3)c(Cl)c2=O)cc1)Nc1cccc(SC(F)(F)F)c1  680 nM
59. COc1ccc(Cl)cc1NC(=O)C(C)N1CCN(S(=O)(=O)c2ccccc2F)CC1 (stereo unspecified)  670 nM
60. Cc1nnc(-c2cccc(Nc3ccnc4cc(-c5nccs5)ccc34)c2)o1  630 nM
61. c1ccc(-c2nc(Nc3nc4ccccc4[nH]3)[nH]c2-c2ccccc2)cc1  620 nM
62. CCCc1ccccc1Nc1nc(C)cc(N(CC)CCCN2CCCCC2)n1  620 nM
63. CC(=O)Oc1c(C2C=CCCC2)c(OC(C)=O)c2ccccc2c1OC(C)=O (stereo unspecified)  600 nM
64. OC1(c2ccc(Br)cc2)CCN(C2CCN(Cc3ccccc3)CC2)CC1  600 nM
65. CCOc1c(CCNCCCCNCCc2ccc3ccccc3c2OCC)ccc2ccccc12  600 nM
66. CCC(C)NCc1c(O)ccc2c(CNC(C)CC)c(O)ccc12 (stereo unspecified)  590 nM
67. Cc1[nH]nc2ccc(-c3ccc4nccc(N5CCC(N)CC5)c4c3)cc12  590 nM
68. O=C(/C=C/c1ccc(Cl)c(Cl)c1)NCCCCCN1CCC(NC(=O)Nc2ccc(Br)cc2)CC1  570 nM
69. CCC[C@@H]([C@@H](CC1CCCCC1)C(=O)N[C@H](C(=O)Nc1nccc(N)n1)C(C)(C)C)N(O)C=O  530 nM
70. CCCN(CC(=O)NCCc1ccccc1)c1ccc(C#N)c2ccccc12  500 nM
71. COc1ccc(C=C2SC(=O)NC2=Nc2ccccc2)c(OC)c1  470 nM
72. CNc1nc(Nc2ccccc2C)nc2ccccc12  440 nM
73. Fc1ccc2nc(-c3ccc(-c4ccc(CNCC5CCCO5)cc4)cc3)[nH]c2c1 (stereo unspecified)  440 nM
74. CC1(C)C=C(c2ccncc2)c2cc(Cl)ccc2O1  430 nM
75. O=C(NC1CCN(Cc2ccccc2)CC1)c1cc(-c2ccncc2)c(-c2ccc(Cl)c(O)c2)o1  410 nM
76. CCC(C)NS(=O)(=O)c1ccc2nc(Nc3ccc(C)cc3)n([C@H](C)C(C)(C)C)c2c1 (stereo partly specified)  390 nM
77. NC(=NCCCCC1CCCCC1)c1cccc(C(N)=NCCCCC2CCCCC2)n1  390 nM
78. CCN(CCCN1CCCCC1)c1cc(C)nc(Nc2ccc(Cl)cc2)n1  380 nM
79. COc1ccc2nccc([C@@H](O)CN3CCC(NCc4cc5oc(=O)[nH]c5cc4Cl)CC3)c2c1  380 nM
80. CCCCCCCN(CCCCCCC)CCNc1cc(C)nc2ccccc12  340 nM
81. COc1ccccc1C1CCN(C2CCC(NC(=O)c3ccc4nc(-c5ccc(C)cc5)[nH]c4c3)CC2)CC1 (stereo unspecified)  310 nM
82. CSc1ccc(C=CC(=O)NC(=O)c2ccccc2O)cc1  290 nM
83. COc1cccc(-c2c(C#N)c(N)nc3c2c(C)nn3-c2ccccc2)c1O  280 nM
84. Cc1nc(-c2cccc(NC(C)C(=O)Nc3cc(C(F)(F)F)ccc3N3CCOCC3)c2)cs1 (stereo unspecified)  240 nM
85. COc1ccc(CN2CCC(CNCC(c3ccccc3)c3ccccc3)CC2)cc1  230 nM
86. COc1ccc(-c2cccc(NC(=O)c3cccc(C#N)c3)c2)cc1CN1CCCN(C)CC1  190 nM
87. Cc1cccc2[nH]c(-c3cccc(-c4cccc(CNCCNC(=O)c5ccnn5C)c4)c3)nc12  190 nM
88. O=[N+]([O-])c1cccc(Nc2nccc(-c3cnn4ncccc34)n2)c1  180 nM
89. CC(=O)Nc1cccc(C(=O)Nc2cccc(-c3csc(-c4nc5ccccc5[nH]4)c3)c2)c1  180 nM
90. COc1cc(NC(=O)/C=C/c2cc(F)cc(F)c2F)cc(OCCN2CCC(O)(c3ccccc3)CC2)c1  170 nM
91. O=C(NCc1ccc(F)cc1)Nc1cccc(-c2ccc(-c3nc4ccccc4[nH]3)cc2)c1  170 nM
92. N#Cc1cccc(NC(=O)Nc2ccc(-c3csc(-c4nc5ccccc5[nH]4)c3)cc2)c1  150 nM
93. COc1cc2nc(NCC3CCCCC3)nc(NCc3ccccc3)c2cc1OC  140 nM
94. COc1cc(NCC(O)CNc2cc(OC)c3ccccc3n2)nc2ccccc12  110 nM
95. COc1ccc(-c2cccc(NC(=O)c3ccc(C#N)cc3)c2)cc1CN(C)CCN(C)C  70 nM
96. CC[C@H]1CN2CC[C@H]1C[C@H]2[C@H](O)c1cc(-c2ccc(F)cc2)nc2ccc(OC)cc12  50 nM
97. COc1cc2ccccc2c(CON2C(N)=NC(N)=NC2(C)C)c1OC  50 nM
98. CCCCN(CCCC)CC(O)c1cc(-c2ccc(Cl)cc2)nc2c(Cl)cc(Cl)cc12 (stereo unspecified)  30 nM
99. CC=CCON1C(N)=NC(N)=NC1(C)C  30 nM
100. Cc1cc2c3c(N)nc(N)nc3ccc2n1C(C)C  10 nM
101. CCc1cc2c3c(N)nc(N)nc3ccc2n1CC  10 nM
